According to US8637508B2, “Heterocyclic derivatives and their use in the treatment of neurological disorders” (Novartis AG, priority 2011, dated 2014):
Counter-ions that a name gives are not always drawn. Like-named read-outs stand apart in the source and are kept apart here.

Legend:
human BACE-1 = human BACE-1 (Homo sapiens (Human), UniProt P56817); test: Test 1: Inhibition of human BACE-1
human BACE-2 = human BACE-2 (Homo sapiens (Human), UniProt Q9Y5Z0); test: Test 2: Inhibition of human BACE-2; format: biochemical
Description: Test 2: Inhibition of Human BACE-2

[1] = read-out: BACE-1 IC50, mean IC50, recombinant BACE-1, acetate buffer pH 4.5, fluorescence-quenched peptide substrate
[2] = mean IC50, recombinant BACE-2, acetate buffer pH 4.5, fluorescence-quenched peptide substrate, read-out: BACE-2 IC50

human BACE-2, sequence (Q9Y5Z0 63-473): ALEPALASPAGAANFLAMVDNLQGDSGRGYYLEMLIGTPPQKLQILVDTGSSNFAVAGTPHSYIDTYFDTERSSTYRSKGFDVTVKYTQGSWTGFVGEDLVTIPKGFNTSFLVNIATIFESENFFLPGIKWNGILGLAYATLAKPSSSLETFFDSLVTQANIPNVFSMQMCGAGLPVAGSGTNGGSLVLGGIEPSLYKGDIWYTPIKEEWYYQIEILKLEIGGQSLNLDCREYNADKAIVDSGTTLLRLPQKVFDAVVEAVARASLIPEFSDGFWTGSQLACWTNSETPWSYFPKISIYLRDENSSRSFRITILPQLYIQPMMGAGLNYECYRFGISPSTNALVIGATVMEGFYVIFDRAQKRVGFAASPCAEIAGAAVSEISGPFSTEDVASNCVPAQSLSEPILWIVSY
human BACE-1, sequence (P56817 46-457): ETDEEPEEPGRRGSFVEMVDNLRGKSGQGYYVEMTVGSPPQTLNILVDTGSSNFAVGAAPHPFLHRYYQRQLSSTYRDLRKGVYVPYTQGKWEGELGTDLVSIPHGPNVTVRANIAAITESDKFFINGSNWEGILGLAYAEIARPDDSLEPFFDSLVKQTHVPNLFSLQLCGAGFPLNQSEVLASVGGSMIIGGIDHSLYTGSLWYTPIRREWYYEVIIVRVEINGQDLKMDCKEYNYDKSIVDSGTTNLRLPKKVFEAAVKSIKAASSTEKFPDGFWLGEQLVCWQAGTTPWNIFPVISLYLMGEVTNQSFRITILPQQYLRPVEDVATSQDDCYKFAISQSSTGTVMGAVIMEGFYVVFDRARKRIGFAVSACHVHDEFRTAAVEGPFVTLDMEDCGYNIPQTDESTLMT

Compound	IC50 (human BACE-1; [1])	IC50 (human BACE-2; [2])	IC50 (human BACE-1)	IC50 (human BACE-2)
Cc1cc(C#N)cnc1C(=O)Nc1cc([C@]2(C)COC(CF)(CF)C(N)=N2)c(F)cn1 [Example 37, 5-Cyano-3-methyl-pyridine-2-carboxylic acid [4-((R)-5-amino-6,6-bis-fluoromethyl-3-methyl-3,6-dihydro-2H-[1,4]oxazin-3-yl)-5-fluoro-pyridin-2-yl]-amide]	380 nM	430 nM	–	–
COc1cnc(C(=O)Nc2ccc(F)c([C@]3(C)CO[C@@](C)(C(F)(F)F)C(N)=N3)n2)c(C)c1 [Example 25, 5-Methoxy-3-methyl-pyridine-2-carboxylic acid [6-((3R,6R)-5-amino-3,6-dimethyl-6-trifluoromethyl-3,6-dihydro-2H-[1,4]oxazin-3-yl)-5-fluoro-pyridin-2-yl]amide]	93 nM	15 nM	–	–
C[C@@]1(c2cccc(NC(=O)c3ccc(C#N)cn3)n2)CO[C@@](C)(C(F)(F)F)C(N)=N1 [Example 10, 5-Cyano-pyridine-2-carboxylic acid [6-((3R,6R)-5-amino-3,6-dimethyl-6-trifluoromethyl-3,6-dihydro-2H-[1,4]oxazin-3-yl)-pyridin-2-yl]-amide]	39 nM	–	–	–
C[C@@]1(c2cccc(NC(=O)c3ncc(OCC(F)(F)F)nc3N)n2)CO[C@@](C)(C(F)(F)F)C(N)=N1 [Example 23, 3-Amino-5-(2,2,2-trifluoro-ethoxy)-pyrazine-2-carboxylic acid [6-((3R,6R)-5-amino-3,6-dimethyl-6-trifluoromethyl-3,6-dihydro-2H-[1,4]oxazin-3-yl)-pyridin-2-yl]-amide]	1200 nM	> 10000 nM	–	–
C[C@@]1(c2cccc(NC(=O)c3ncc(C#N)cc3Cl)n2)CO[C@@](C)(C(F)(F)F)C(N)=N1 [Example 20, 3-Chloro-5-cyano-pyridine-2-carboxylic acid [6-((3R,6R)-5-amino-3,6-dimethyl-6-trifluoromethyl-3,6-dihydro-2H-[1,4]oxazin-3-yl)-pyridin-2-yl]-amide]	10 nM	41 nM	–	–
Cc1cc(OC(F)F)cnc1C(=O)Nc1ccc(F)c([C@]2(C)CO[C@@](C)(C(F)(F)F)C(N)=N2)n1 [Example 29, 5-Difluoromethoxy-3-methyl-pyridine-2-carboxylic acid [6-((3R,6R)-5-amino-3,6-dimethyl-6-trifluoromethyl-3,6-dihydro-2H-[1,4]oxazin-3-yl)-5-fluoro-pyridin-2-yl]amide]	26 nM	24 nM	–	–
[2H]c1nc(C(=O)Nc2cccc([C@]3(C)CO[C@@](C)(C(F)(F)F)C(N)=N3)n2)c(C([2H])([2H])[2H])c([2H])c1Cl [Example 21, 5-Chloro-4,6-dideuterio-3-trideuteriomethyl-pyridine-2-carboxylic acid [6-((3R,6R)-5-amino-3,6-dimethyl-6-trifluoromethyl-3,6-dihydro-2H-[1,4]oxazin-3-yl)-pyridin-2-yl]-amide]	–	–	31 nM	8 nM
C[C@@]1(c2nc(NC(=O)c3nc4ccn(CC(F)F)c4nc3N)ccc2F)CO[C@@](C)(C(F)(F)F)C(N)=N1 [Example 45, 3-Amino-5-(2,2-difluoro-ethyl)-5H-pyrrolo[2,3-b]pyrazine-2-carboxylic acid [6-((3R,6R)-5-amino-3,6-dimethyl-6-trifluoromethyl-3,6-dihydro-2H-[1,4]oxazin-3-yl)-5-fluoro-pyridin-2-yl]amide]	–	–	> 10000 nM	> 10000 nM
C[C@]1(c2cccc(NC(=O)c3ccc(C#N)cn3)n2)CO[C@@](C)(C(F)(F)F)C(N)=N1 [Example 9, 5-Cyano-pyridine-2-carboxylic acid [6-((3S,6R)-5-amino-3,6-dimethyl-6-trifluoromethyl-3,6-dihydro-2H-[1,4]oxazin-3-yl)-pyridin-2-yl]-amide hydrochloride]	6200 nM	–	–	–
Cc1cc(C#N)cnc1C(=O)Nc1cccc([C@]2(C)CO[C@@](C)(C(F)(F)F)C(N)=N2)n1 [Example 8, 5-Cyano-3-methyl-pyridine-2-carboxylic acid [6-((3R,6R)-5-amino-3,6-dimethyl-6-trifluoro-methyl-3,6-dihydro-2H-[1,4]oxazin-3-yl)-pyridin-2-yl]-amide]	5 nM	20 nM	–	–
Cc1cc(C#N)cnc1C(=O)Nc1ccc(F)c([C@]2(C(F)F)COCC(N)=N2)n1 [Example 38, 5-Cyano-3-methyl-pyridine-2-carboxylic acid [6-((R)-5-amino-3-difluoromethyl-3,6-dihydro-2H-[1,4]oxazin-3-yl)-5-fluoro-pyridin-2-yl]-amide]	33 nM	160 nM	–	–
COCCn1ccc2nc(C(=O)Nc3ccc(F)c([C@]4(C)CO[C@@](C)(C(F)(F)F)C(N)=N4)n3)c(N)nc21 [Example 43, 3-Amino-5-(2-methoxy-ethyl)-5H-pyrrolo[2,3-b]pyrazine-2-carboxylic acid [6-((3R,6R)-5-amino-3,6-dimethyl-6-trifluoromethyl-3,6-dihydro-2H-[1,4]oxazin-3-yl)-5-fluoro-pyridin-2-yl]amide]	1200 nM	–	–	> 10000 nM
[2H]c1nc(C(=O)Nc2cccc(C3(CF)COCC(N)=N3)n2)c(C([2H])([2H])[2H])c([2H])c1Cl (stereo not drawn) [Example 6, 5-{6-[(4,6-Dideutero-5-chloro-3-trideuteromethyl-pyridine-2-carbonyl)-amino]-pyridin-2-yl}-5-fluoromethyl-5,6-dihydro-2H-[1,4]oxazin-3-yl-ammonium trifluoro acetate]	–	–	550 nM	240 nM
Cc1cc(OCF)cnc1C(=O)Nc1ccc(F)c([C@]2(C)CO[C@@](C)(C(F)(F)F)C(N)=N2)n1 [Example 32, 5-Fluoromethoxy-3-methyl-pyridine-2-carboxylic acid [6-((3R,6R)-5-amino-3,6-dimethyl-6-trifluoromethyl-3,6-dihydro-2H-[1,4]oxazin-3-yl)-5-fluoro-pyridin-2-yl]amide]	45 nM	7 nM	–	–
COCCn1ccc2nc(C(=O)Nc3ccc(F)c([C@]4(C)CO[C@@](C)(C(F)(F)F)C(N)=N4)n3)c(Cl)cc21 [Example 48, 6-Chloro-1-(2-methoxy-ethyl)-1H-pyrrolo[3,2-b]pyridine-5-carboxylic acid [6-((3R,6R)-5-amino-3,6-dimethyl-6-trifluoromethyl-3,6-dihydro-2H-[1,4]oxazin-3-yl)-5-fluoro-pyridin-2-yl]-amide]	7300 nM	–	–	> 10000 nM
C[C@@]1(c2nc(NC(=O)c3nn(C(F)F)cc3Cl)ccc2F)CO[C@@](C)(C(F)(F)F)C(N)=N1 [Example 46, 4-Chloro-1-difluoromethyl-1H-pyrazole-3-carboxylic acid [6-((3R,6R)-5-amino-3,6-dimethyl-6-trifluoromethyl-3,6-dihydro-2H-[1,4]oxazin-3-yl)-5-fluoro-pyridin-2-yl]-amide]	10 nM	5 nM	–	–
N#Cc1cnc(C(=O)Nc2ccc(F)c([C@]3(C(F)F)COCC(N)=N3)n2)c(Cl)c1 [Example 40, 3-Chloro-5-cyano-pyridine-2-carboxylic acid [6-((R)-5-amino-3-difluoromethyl-3,6-dihydro-2H-[1,4]oxazin-3-yl)-5-fluoro-pyridin-2-yl]-amide]	42 nM	170 nM	–	–
[2H]c1nc(C(=O)Nc2cc(C3(CF)COCC(N)=N3)ccn2)c(C([2H])([2H])[2H])c([2H])c1Cl (stereo not drawn) [Example 13, 5-{2-[(5-Chloro-4,6-dideutero-3-trideuteromethyl-pyridine-2-carbonyl)-amino]-pyridin-4-yl}-5-fluoromethyl-5,6-dihydro-2H-[1,4]oxazin-3-yl-ammonium acetate]	–	–	–	1500 nM
NC1=NC(CF)(c2ccnc(NC(=O)c3ccc(Cl)cn3)c2)COC1 (stereo not drawn) [Example 14, 5-{2-[(5-Chloro-pyridine-2-carbonyl)-amino]-pyridin-4-yl}-5-fluoromethyl-5,6-dihydro-2H-[1,4]oxazin-3-yl-ammonium trifluoro-acetate]	8100 nM	4800 nM	–	–
Cc1cnc(C(=O)Nc2ccc(F)c([C@]3(C)CO[C@@](C)(C(F)(F)F)C(N)=N3)n2)cn1 [Example 33, 5-Methyl-pyrazine-2-carboxylic acid [6-((3R,6R)-5-amino-3,6-dimethyl-6-trifluoromethyl-3,6-dihydro-2H-[1,4]oxazin-3-yl)-5-fluoro-pyridin-2-yl]amide]	820 nM	330 nM	–	–
C[C@@]1(c2cccc(NC(=O)c3ccc(Br)cn3)n2)COCC(N)=N1 [Example 1, 5-Bromo-pyridine-2-carboxylic acid [6-((R)-5-amino-3-methyl-3,6-dihydro-2H-[1,4]-oxazin-3-yl)-pyridin-2-yl]-amide]	390 nM	260 nM	–	–
Cc1cc(C(N)=S)cnc1C(=O)Nc1cc(C2(CF)COCC(N)=N2)ccn1 (stereo not drawn) [Example 15, 5-Fluoromethyl-5-{2-[(3-methyl-5-thiocarbamoyl-pyridine-2-carbonyl)-amino]-pyridin-4-yl}-5,6-dihydro-2H-[1,4]oxazin-3-yl-ammonium trifluoro-acetate]	–	–	> 10000 nM	> 10000 nM
C[C@@]1(c2cc(NC(=O)c3ncc(OC(F)F)cc3Cl)ncc2F)CO[C@@](C)(C(F)(F)F)C(N)=N1 [Example 36, 3-Chloro-5-difluoromethoxy-pyridine-2-carboxylic acid [4-((3R,6R)-5-amino-3,6-dimethyl-6-trifluoromethyl-3,6-dihydro-2H-[1,4]oxazin-3-yl)-5-fluoro-pyridin-2-yl]-amide]	410 nM	280 nM	–	–
NC1=NC(CF)(c2cc(NC(=O)c3ccc(Br)cn3)cnc2Cl)COC1 (stereo not drawn) [Example 18, 5-Bromo-pyridine-2-carboxylic acid [5-(5-amino-3-fluoromethyl-3,6-dihydro-2H-[1,4]oxazin-3-yl)-6-chloro-pyridin-3-yl]-amide hydrochloride]	140 nM	130 nM	–	–
